According to patent US20120082727A1, “USE OF MAGNESIUM STEARATE IN DRY POWDER FORMULATIONS FOR INHALATION” (CHIESI FARMACEUTICI S.p.A., priority 2010, published 2012):

Test: Chemical stability of dry powder formulations on storage in glass vials, residual test compound and hydrolysis product by UPLC
Format: physicochemical
Details: 25 °C, 60% rel. humidity; for CHF 5551.02 values (%): hydrolysis degradation product
Protocol: Dry powder formulations were prepared comprising as a carrier either particles of alpha-lactose monohydrate 212-355 microns alone (coarse) or coated with magnesium stearate (coated). Said coated particles were obtained by mixing alpha-lactose monohydrate with 1% magnesium stearate in a Turbula mixer for 4 hours.
Samples of the manufactured mixtures were filled in glass vials and stored under stressing conditions ([…]) in comparison to a sample stored under long tem conditions (25 ° C., 60% relative humidity).
The percentage amount of residual test compound and of the degradation product due to hydrolysis, (R)-1-hydroxy-(2-oxo-2-thiophen-2-yl-ethyl)-1-azonia-bicyclo[2.2.2]octane; chloride quoted as CHF 5551.02, was determined in the two formulations by ultra performance liquid chromatography (UPLC) in comparison to the active ingredient without the carrier (API). The variation of CHF 5551.2 content with the time is also plotted in FIG. 3.

## O=C(OC(c1cccc(F)c1)c1cccc(F)c1)O[C@H]1C[N+]2(CC(=O)c3cccs3)CCC1CC2.[Cl-] [Test compound, (R)-3-[bis-(3-fluoro-phenyl)-methoxycarbonyloxy]-1-(2-oxo-2-thiophen-2-yl-ethyl)-1-azonia-bicyclo[2.2.2]octane; chloride]
0 days
  Test compound values (%): 100.0%
  CHF 5551.02 values (%): 0.08%
2 days
  Test compound values (%): 99.9%
  CHF 5551.02 values (%): 0.20%
4 days
  Test compound values (%): 99.9%
  CHF 5551.02 values (%): 0.29%
7 days
  Test compound values (%): 99.9%
  CHF 5551.02 values (%): 0.24%
9 days
  Test compound values (%): 99.9%
  CHF 5551.02 values (%): 0.28%
11 days
  Test compound values (%): 99.9%
  CHF 5551.02 values (%): 0.29%
14 days
  Test compound values (%): 100.0%
  CHF 5551.02 values (%): 0.23%
